Measurements as given in patent US4471131A, “Novel silyl esters of N-phosphonomethylglycine” (Monsanto Company, priority 1983, dated 1984).

Columns and labels:
Assay in all cases: post-emergence herbicidal activity, greenhouse
Assay type in all cases: in vivo
Barnyardgrass = system: Barnyardgrass
Summary of the method: (§1)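 Foliar spray, chamber, atomizer; plants 2–3 weeks old in topsoil pans; emulsifier ~0.4% by weight; rates as listed. Rating: injury relative to controls, ~2 and ~4 WAT.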

Canada Thistle = details: Table II
Summary of the method: as §1

Cocklebur = system: Cocklebur
Summary of the method: as §1

Common Lambsquarters = system: Common Lambsquarters
Summary of the method: as §1

Downy Brome = system: Downy Brome
Summary of the method: as §1

Hemp Sesbania = details: Table III; 2 WAT; 1.1 kg/h
Summary of the method: as §1

Johnsongrass = details: Table II
Summary of the method: as §1

Large Crabgrass = details: Table III; 2 WAT; 1.1 kg/h
Summary of the method: as §1

Morningglory = system: Morningglory
Summary of the method: as §1

Panicum Spp = details: Table III; 2 WAT; 1.1 kg/h
Summary of the method: as §1

Pennsylvania Smartweed = details: Table II
Summary of the method: as §1

Quackgrass = details: Table II
Summary of the method: (§2)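 The readout is plant injury compared with untreated pans, taken at two time points, about two and four weeks after spraying. Plants had grown two to three weeks in greenhouse topsoil pans before atomizer treatment.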

Rice = details: Table III; 2 WAT; 1.1 kg/h
Summary of the method: as §1

Soybean = details: Table III; 2 WAT; 1.1 kg/h
Summary of the method: as §1

Sugar Beet = details: Table III; 2 WAT; 1.1 kg/h
Summary of the method: as §1

Velvetleaf = system: Velvetleaf
Summary of the method: as §1

Wild Buckwheat = details: Table III; 2 WAT; 1.1 kg/h
Summary of the method: as §1

Yellow Nutsedge = details: Table II
Summary of the method: as §2

How did the “Plant Response Index (K)” value (Barnyardgrass; Table II, 2 WAT, 5.6 kg/h) turn out when CC(C)(C)[Si](OP(=O)(O)CNCC(=O)OCCCl)(c1ccccc1)c1ccccc1 [Ex. 8, Glycine, N--((([(1,1-Dimethylethyl)Diphenylsilyl]oxy)Hydroxyphosphinyl)Methyl)-,2-Chloroethyl Ester Hydrate] was run?
The value was 3 (75-99% inhibition).

And the “Plant Response Index (K)” value (Barnyardgrass; Table II, 2 WAT, 11.2 kg/h)?
The value was 2 (50-74% inhibition).

What about the “Plant Response Index (K)” value (Barnyardgrass; Table II, 4 WAT, 5.6 kg/h) of the same compound?
The value was 4 (100% inhibition).

And the “Plant Response Index (K)” value (Barnyardgrass; Table II, 4 WAT, 11.2 kg/h)?
Its value is 3 (75-99% inhibition).

And the “Plant Response Index (K)” value (Barnyardgrass; Table III, 2 WAT, 1.1 kg/h)?
The value was 1 (25-49% inhibition).

And the “Plant Response Index (A)” value (Canada Thistle; 2 WAT, 5.6 kg/h)?
Its value is 2 (50-74% inhibition).

What about the “Plant Response Index (A)” value (Canada Thistle; 2 WAT, 11.2 kg/h) of the same compound?
Its value is 2 (50-74% inhibition).

What about the “Plant Response Index (A)” value (Canada Thistle; 4 WAT, 5.6 kg/h) of the same compound?
Its value is 4 (100% inhibition).

What about the “Plant Response Index (A)” value (Canada Thistle; 4 WAT, 11.2 kg/h) of the same compound?
Its value is 2 (50-74% inhibition).

And the “Plant Response Index (B)” value (Cocklebur; Table II, 2 WAT, 5.6 kg/h)?
The value was 2 (50-74% inhibition).

And the “Plant Response Index (B)” value (Cocklebur; Table II, 2 WAT, 11.2 kg/h)?
The value was 3 (75-99% inhibition).

And the “Plant Response Index (B)” value (Cocklebur; Table II, 4 WAT, 5.6 kg/h)?
Its value is 3 (75-99% inhibition).

What about the “Plant Response Index (B)” value (Cocklebur; Table II, 4 WAT, 11.2 kg/h) of the same compound?
The value was 3 (75-99% inhibition).

What about the “Plant Response Index (B)” value (Cocklebur; Table III, 2 WAT, 1.1 kg/h) of the same compound?
The value was 0 (0-24% inhibition).

What about the “Plant Response Index (E)” value (Common Lambsquarters; Table II, 2 WAT, 5.6 kg/h) of the same compound?
The value was 2 (50-74% inhibition).

And the “Plant Response Index (E)” value (Common Lambsquarters; Table II, 2 WAT, 11.2 kg/h)?
Its value is 1 (25-49% inhibition).

And the “Plant Response Index (E)” value (Common Lambsquarters; Table II, 4 WAT, 5.6 kg/h)?
The value was 2 (50-74% inhibition).

And the “Plant Response Index (E)” value (Common Lambsquarters; Table II, 4 WAT, 11.2 kg/h)?
Its value is 1 (25-49% inhibition).

And the “Plant Response Index (E)” value (Common Lambsquarters; Table III, 2 WAT, 1.1 kg/h)?
Its value is 3 (75-99% inhibition).

And the “Plant Response Index (J)” value (Downy Brome; Table II, 2 WAT, 5.6 kg/h)?
Its value is 1 (25-49% inhibition).

What about the “Plant Response Index (J)” value (Downy Brome; Table II, 2 WAT, 11.2 kg/h) of the same compound?
The value was 2 (50-74% inhibition).

What about the “Plant Response Index (J)” value (Downy Brome; Table II, 4 WAT, 5.6 kg/h) of the same compound?
Its value is 1 (25-49% inhibition).

And the “Plant Response Index (J)” value (Downy Brome; Table II, 4 WAT, 11.2 kg/h)?
Its value is 3 (75-99% inhibition).

And the “Plant Response Index (J)” value (Downy Brome; Table III, 2 WAT, 1.1 kg/h)?
The value was 0 (0-24% inhibition).

And the “Plant Response Index (R)” value (Hemp Sesbania)?
Its value is 1 (25-49% inhibition).

And the “Plant Response Index (I)” value (Johnsongrass; 2 WAT, 5.6 kg/h)?
Its value is 0 (0-24% inhibition).

What about the “Plant Response Index (I)” value (Johnsongrass; 2 WAT, 11.2 kg/h) of the same compound?
The value was 1 (25-49% inhibition).

And the “Plant Response Index (I)” value (Johnsongrass; 4 WAT, 5.6 kg/h)?
Its value is 2 (50-74% inhibition).

And the “Plant Response Index (I)” value (Johnsongrass; 4 WAT, 11.2 kg/h)?
Its value is 2 (50-74% inhibition).

And the “Plant Response Index (T)” value (Large Crabgrass)?
Its value is 2 (50-74% inhibition).

And the “Plant Response Index (D)” value (Morningglory; Table II, 2 WAT, 5.6 kg/h)?
Its value is 2 (50-74% inhibition).

What about the “Plant Response Index (D)” value (Morningglory; Table II, 2 WAT, 11.2 kg/h) of the same compound?
The value was 2 (50-74% inhibition).

What about the “Plant Response Index (D)” value (Morningglory; Table II, 4 WAT, 5.6 kg/h) of the same compound?
The value was 2 (50-74% inhibition).

And the “Plant Response Index (D)” value (Morningglory; Table II, 4 WAT, 11.2 kg/h)?
The value was 2 (50-74% inhibition).

What about the “Plant Response Index (D)” value (Morningglory; Table III, 2 WAT, 1.1 kg/h) of the same compound?
The value was 0 (0-24% inhibition).

What about the “Plant Response Index (S)” value (Panicum Spp) of the same compound?
The value was 1 (25-49% inhibition).

And the “Plant Response Index (F)” value (Pennsylvania Smartweed; 2 WAT, 5.6 kg/h)?
The value was 3 (75-99% inhibition).

What about the “Plant Response Index (F)” value (Pennsylvania Smartweed; 2 WAT, 11.2 kg/h) of the same compound?
Its value is 2 (50-74% inhibition).

And the “Plant Response Index (F)” value (Pennsylvania Smartweed; 4 WAT, 5.6 kg/h)?
Its value is 4 (100% inhibition).

And the “Plant Response Index (F)” value (Pennsylvania Smartweed; 4 WAT, 11.2 kg/h)?
Its value is 4 (100% inhibition).

What about the “Plant Response Index (H)” value (Quackgrass; 2 WAT, 5.6 kg/h) of the same compound?
Its value is 3 (75-99% inhibition).

What about the “Plant Response Index (H)” value (Quackgrass; 2 WAT, 11.2 kg/h) of the same compound?
Its value is 2 (50-74% inhibition).

What about the “Plant Response Index (H)” value (Quackgrass; 4 WAT, 5.6 kg/h) of the same compound?
The value was 4 (100% inhibition).

What about the “Plant Response Index (H)” value (Quackgrass; 4 WAT, 11.2 kg/h) of the same compound?
The value was 3 (75-99% inhibition).

What about the “Plant Response Index (O)” value (Rice) of the same compound?
The value was 0 (0-24% inhibition).

What about the “Plant Response Index (L)” value (Soybean) of the same compound?
Its value is 0 (0-24% inhibition).

What about the “Plant Response Index (M)” value (Sugar Beet) of the same compound?
Its value is 0 (0-24% inhibition).

What about the “Plant Response Index (C)” value (Velvetleaf; Table II, 2 WAT, 5.6 kg/h) of the same compound?
The value was 1 (25-49% inhibition).

And the “Plant Response Index (C)” value (Velvetleaf; Table II, 2 WAT, 11.2 kg/h)?
The value was 3 (75-99% inhibition).

What about the “Plant Response Index (C)” value (Velvetleaf; Table II, 4 WAT, 5.6 kg/h) of the same compound?
Its value is 1 (25-49% inhibition).

And the “Plant Response Index (C)” value (Velvetleaf; Table II, 4 WAT, 11.2 kg/h)?
The value was 3 (75-99% inhibition).

And the “Plant Response Index (C)” value (Velvetleaf; Table III, 2 WAT, 1.1 kg/h)?
The value was 0 (0-24% inhibition).

What about the “Plant Response Index (Q)” value (Wild Buckwheat) of the same compound?
Its value is 0 (0-24% inhibition).

And the “Plant Response Index (G)” value (Yellow Nutsedge; 2 WAT, 5.6 kg/h)?
Its value is 2 (50-74% inhibition).

What about the “Plant Response Index (G)” value (Yellow Nutsedge; 2 WAT, 11.2 kg/h) of the same compound?
The value was 2 (50-74% inhibition).

And the “Plant Response Index (G)” value (Yellow Nutsedge; 4 WAT, 5.6 kg/h)?
Its value is 2 (50-74% inhibition).

What about the “Plant Response Index (G)” value (Yellow Nutsedge; 4 WAT, 11.2 kg/h) of the same compound?
The value was 3 (75-99% inhibition).
